Laboratory results from ChEMBL document CHEMBL1201861, “Genomics of Drug Sensitity in Cancer screening data, Wellcome Trust Sanger Institute”.

Legend:
Assay in all cases: cells
KE-37 = assay type: functional, cell-based, Homo sapiens; conditions: Homo sapiens, KE-37;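 further: growth inhibition of KE-37 cells, read out with a cell viability assay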
Description: SANGER: Inhibition of human KE-37 cell growth in a cell viability assay.

EM-2 = assay type: functional, cell-based, Homo sapiens; conditions: Homo sapiens, EM-2;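 further: growth inhibition of EM-2 cells, read out with a cell viability assay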
Description: SANGER: Inhibition of human EM-2 cell growth in a cell viability assay.

NCI-H209 = assay type: functional, cell-based, Homo sapiens; conditions: Homo sapiens, NCI-H209;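 further: growth inhibition of human NCI-H209 cells, measured by a cell viability assay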
Description: SANGER: Inhibition of human NCI-H209 cell growth in a cell viability assay.

HEL = assay type: functional, cell-based, Homo sapiens; conditions: Homo sapiens, HEL;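 further: growth inhibition of HEL cells, read out with a cell viability assay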
Description: SANGER: Inhibition of human HEL cell growth in a cell viability assay.

D-502MG = assay type: functional, cell-based, Homo sapiens; conditions: Homo sapiens, D-502MG
Description: SANGER: Inhibition of human D-502MG cell growth in a cell viability assay.

MZ7-mel = assay type: functional, cell-based, Homo sapiens; conditions: Homo sapiens, MZ7-mel;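 further: growth inhibition of human MZ7-mel cells, measured by a cell viability assay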
Description: SANGER: Inhibition of human MZ7-mel cell growth in a cell viability assay.

A498 = assay type: functional, cell-based, Homo sapiens; conditions: Homo sapiens, A498;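 further: growth inhibition of human A498 cells, read out with a cell viability assay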
Description: SANGER: Inhibition of human A498 cell growth in a cell viability assay.

HOP-62 = assay type: functional, cell-based, Homo sapiens; conditions: Homo sapiens, HOP-62;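 further: cell growth inhibition determined with a viability assay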
Description: SANGER: Inhibition of human HOP-62 cell growth in a cell viability assay.

NEC8 = assay type: functional, cell-based, Homo sapiens; conditions: Homo sapiens, NEC8;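 further: growth inhibition of human NEC8 cells, read out by a cell viability assay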
Description: SANGER: Inhibition of human NEC8 cell growth in a cell viability assay.

GAK = assay type: functional, cell-based, Homo sapiens; conditions: Homo sapiens, GAK;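 further: cell growth inhibition read out by a cell viability assay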
Description: SANGER: Inhibition of human GAK cell growth in a cell viability assay.

HCC 2998 = assay type: functional, cell-based, Homo sapiens; conditions: Homo sapiens, HCC 2998;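 further: growth inhibition of human HCC2998 cells, measured with a cell viability read-out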
Description: SANGER: Inhibition of human HCC2998 cell growth in a cell viability assay.

LS-411N = assay type: functional, cell-based, Homo sapiens; conditions: Homo sapiens, LS-411N
EW-3 = assay type: functional, cell-based, Homo sapiens; conditions: Homo sapiens, EW-3;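 further: cell viability assay read-out, IC50 reflects inhibition of growth of the EW-3 cells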
Description: SANGER: Inhibition of human EW-3 cell growth in a cell viability assay.

U-87 MG = assay type: functional, cell-based, Homo sapiens, U-87MG ATCC; conditions: Homo sapiens, U-87 MG;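 further: growth inhibition of the cells measured with a viability assay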
Description: SANGER: Inhibition of human U-87-MG cell growth in a cell viability assay.

ALL-PO = assay type: functional, cell-based, Homo sapiens; conditions: Homo sapiens, ALL-PO;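 further: growth inhibition of ALL-PO cells, read out by a cell viability assay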
Description: SANGER: Inhibition of human ALL-PO cell growth in a cell viability assay.

IST-MEL1 = assay type: functional, cell-based, Homo sapiens; conditions: Homo sapiens, IST-MEL1;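 further: growth inhibition of the cell line, read out with a cell viability assay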
Description: SANGER: Inhibition of human IST-MEL1 cell growth in a cell viability assay.

NB10 = assay type: functional, cell-based, Homo sapiens; conditions: Homo sapiens, NB10;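 further: growth inhibition of NB10 cells, read out by a cell viability assay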
Description: SANGER: Inhibition of human NB10 cell growth in a cell viability assay.

KMOE-2 = assay type: functional, cell-based, Homo sapiens; conditions: Homo sapiens, KMOE-2;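 further: growth inhibition of human KMOE-2 cells, read out with a cell viability assay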
Description: SANGER: Inhibition of human KMOE-2 cell growth in a cell viability assay.

KM-H2 = assay type: functional, cell-based, Homo sapiens; conditions: Homo sapiens, KM-H2;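 further: growth inhibition of KM-H2 cells, read out by a cell viability assay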
Description: SANGER: Inhibition of human KM-H2 cell growth in a cell viability assay.

RPMI-8226 = assay type: functional, cell-based, Homo sapiens; conditions: Homo sapiens, RPMI-8226
Description: SANGER: Inhibition of human RPMI-8226 cell growth in a cell viability assay.

GT3TKB = assay type: functional, cell-based, Homo sapiens; conditions: Homo sapiens, GT3TKB;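 further: growth inhibition of the cell line, read out with a cell viability assay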
Description: SANGER: Inhibition of human GT3TKB cell growth in a cell viability assay.

no-11 = assay type: functional, cell-based, Homo sapiens; conditions: Homo sapiens;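 further: growth inhibition of human NO-11 cells, read out with a cell viability assay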
Description: SANGER: Inhibition of human no-11 cell growth in a cell viability assay.

SW684 = assay type: functional, cell-based, Homo sapiens; conditions: Homo sapiens, SW684;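 further: growth inhibition of human SW684 cells, measured by a cell viability assay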
Description: SANGER: Inhibition of human SW684 cell growth in a cell viability assay.

SK-MEL-2 = assay type: functional, cell-based, Homo sapiens; conditions: Homo sapiens, SK-MEL-2;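 further: growth inhibition of human SK-MEL-2 cells measured with a cell viability assay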
Description: SANGER: Inhibition of human SK-MEL-2 cell growth in a cell viability assay.

PSN1 = assay type: functional, cell-based, Homo sapiens; conditions: Homo sapiens, PSN1;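 further: suppression of growth of human PSN1 cells, read out by a cell viability assay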
Description: SANGER: Inhibition of human PSN1 cell growth in a cell viability assay.

SF-268 = assay type: functional, cell-based, Homo sapiens; conditions: Homo sapiens, SF-268;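 further: growth inhibition of SF-268 cells determined with a cell viability assay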
Description: SANGER: Inhibition of human SF268 cell growth in a cell viability assay.

LC-2-ad = assay type: functional, cell-based, Homo sapiens; conditions: Homo sapiens, LC-2-ad;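 further: growth inhibition of human LC-2-ad cells, read out with a cell viability assay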
Description: SANGER: Inhibition of human LC-2-ad cell growth in a cell viability assay.

ACN = assay type: functional, cell-based, Homo sapiens; conditions: Homo sapiens, ACN;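 further: growth inhibition of the human ACN cell line, read out via cell viability testing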
Description: SANGER: Inhibition of human ACN cell growth in a cell viability assay.

BB30-HNC = assay type: functional, cell-based, Homo sapiens; conditions: Homo sapiens, BB30-HNC;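 further: growth inhibition of the cultured cell line, read out by a cell viability assay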
Description: SANGER: Inhibition of human BB30-HNC cell growth in a cell viability assay.

MPP-89 = assay type: functional, cell-based, Homo sapiens; conditions: Homo sapiens, MPP-89;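 further: growth inhibition of human MPP-89 cells, read out with a cell viability assay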
Description: SANGER: Inhibition of human MPP-89 cell growth in a cell viability assay.

A704 = assay type: functional, cell-based, Homo sapiens; conditions: Homo sapiens, A704;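 further: growth inhibition of human A704 cells, read out with a cell viability assay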
Description: SANGER: Inhibition of human A704 cell growth in a cell viability assay.

EW-16 = assay type: functional, cell-based, Homo sapiens; conditions: Homo sapiens, EW-16;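 further: growth inhibition of human EW-16 cells, read out as cell viability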
Description: SANGER: Inhibition of human EW-16 cell growth in a cell viability assay.

BT-474 = assay type: functional, cell-based, Homo sapiens; conditions: Homo sapiens, BT-474
Description: SANGER: Inhibition of human BT-474 cell growth in a cell viability assay.

MZ2-MEL = assay type: functional, cell-based, Homo sapiens; conditions: Homo sapiens, MZ2-MEL;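 further: growth inhibition of MZ2-MEL cells read out with a cell viability assay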
Description: SANGER: Inhibition of human MZ2-MEL cell growth in a cell viability assay.

COLO-668 = assay type: functional, cell-based, Homo sapiens; conditions: Homo sapiens, COLO-668
Description: SANGER: Inhibition of human COLO-668 cell growth in a cell viability assay.

MFH-ino = assay type: functional, cell-based, Homo sapiens; conditions: Homo sapiens, MFH-ino;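 further: growth inhibition of human MFH-ino cells, read out by a cell viability assay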
Description: SANGER: Inhibition of human MFH-ino cell growth in a cell viability assay.

ES8 = assay type: functional, cell-based, Homo sapiens; conditions: Homo sapiens, ES8;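 further: growth inhibition of human ES8 cells, read out with a cell viability assay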
Description: SANGER: Inhibition of human ES8 cell growth in a cell viability assay.

TK-10 = assay type: functional, cell-based, Homo sapiens; conditions: Homo sapiens, TK-10;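 further: growth inhibition of TK-10 cells, read out in a cell viability assay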
Description: SANGER: Inhibition of human TK10 cell growth in a cell viability assay.

SW982 = assay type: functional, cell-based, Homo sapiens; conditions: Homo sapiens, SW982;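 further: growth inhibition of SW982 cells, read out with a cell viability assay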
Description: SANGER: Inhibition of human SW982 cell growth in a cell viability assay.

OCUB-M = assay type: functional, cell-based, Homo sapiens; conditions: Homo sapiens, OCUB-M;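 further: growth inhibition of the cancer cell line, read out through a cell viability assay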
Description: SANGER: Inhibition of human OCUB-M cell growth in a cell viability assay.

CGTH-W-1 = assay type: functional, cell-based, Homo sapiens; conditions: Homo sapiens, CGTH-W-1;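 further: growth inhibition of human CGTH-W-1 cells measured by cell viability assay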
Description: SANGER: Inhibition of human CGTH-W-1 cell growth in a cell viability assay.

KNS-81-FD = assay type: functional, cell-based, Homo sapiens; conditions: Homo sapiens, KNS-81-FD;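 further: growth inhibition of KNS-81-FD cells, read out with a cell viability assay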
Description: SANGER: Inhibition of human KNS-81-FD cell growth in a cell viability assay.

SHP77 = assay type: functional, cell-based, Homo sapiens, SHP-77; conditions: Homo sapiens, SHP77;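 further: growth inhibition of human SHP-77 cells measured by a cell viability assay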
Description: SANGER: Inhibition of human SHP-77 cell growth in a cell viability assay.

SH-4 = assay type: functional, cell-based, Homo sapiens; conditions: Homo sapiens, SH-4;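 further: growth inhibition of SH-4 cells, read out with a cell viability assay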
Description: SANGER: Inhibition of human SH-4 cell growth in a cell viability assay.

SW 954 = assay type: functional, cell-based, Homo sapiens; conditions: Homo sapiens, SW 954;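 further: growth inhibition of SW954 human cancer cells, read out as cell viability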
Description: SANGER: Inhibition of human SW954 cell growth in a cell viability assay.

KINGS-1 = assay type: functional, cell-based, Homo sapiens; conditions: Homo sapiens, KINGS-1;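 further: cell viability assay measuring suppression of KINGS-1 cell growth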
Description: SANGER: Inhibition of human KINGS-1 cell growth in a cell viability assay.

NCI-H226 = assay type: functional, cell-based, Homo sapiens; conditions: Homo sapiens, NCI-H226;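 further: cell viability read-out used to gauge growth inhibition of the cells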
Description: SANGER: Inhibition of human NCI-H226 cell growth in a cell viability assay.

ES1 = assay type: functional, cell-based, Homo sapiens; conditions: Homo sapiens, ES1;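 further: growth inhibition of ES1 cells, read out with a cell viability assay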
Description: SANGER: Inhibition of human ES1 cell growth in a cell viability assay.

Cc1cn(-c2cc(NC(=O)c3ccc(C)c(Nc4nccc(-c5cccnc5)n4)c3)cc(C(F)(F)F)c2)cn1 [NILOTINIB]
IC50 (KE-37): > 2 µM | IC50 (EM-2): 4.1 nM | IC50 (NCI-H209): > 2 µM | IC50 (HEL): > 2 µM | IC50 (D-502MG): > 2 µM | IC50 (MZ7-mel): > 2 µM | IC50 (A498): > 2 µM | IC50 (HOP-62): 1820 nM | IC50 (NEC8): > 2 µM | IC50 (GAK): > 2 µM | IC50 (HCC 2998): > 2 µM | IC50 (LS-411N): > 2 µM | IC50 (EW-3): > 2000 nM | IC50 (U-87 MG): > 2 µM | IC50 (ALL-PO): > 2 µM | IC50 (IST-MEL1): > 2 µM | IC50 (NB10): > 2 µM | IC50 (KMOE-2): > 2 µM | IC50 (KM-H2): > 2 µM | IC50 (RPMI-8226): > 2 µM | IC50 (GT3TKB): > 2 µM | IC50 (no-11): > 2 µM | IC50 (SW684): > 2 µM | IC50 (SK-MEL-2): > 2 µM | IC50 (PSN1): > 2 µM | IC50 (SF-268): > 2 µM | IC50 (LC-2-ad): > 2 µM | IC50 (ACN): 1.55 µM | IC50 (BB30-HNC): > 2 µM | IC50 (MPP-89): > 2 µM | IC50 (A704): > 2 µM | IC50 (EW-16): > 2 µM | IC50 (BT-474): > 2 µM | IC50 (MZ2-MEL): > 2 µM | IC50 (COLO-668): > 2 µM | IC50 (MFH-ino): > 2 µM | IC50 (ES8): > 2 µM | IC50 (TK-10): > 2 µM | IC50 (SW982): > 2 µM | IC50 (OCUB-M): > 2 µM | IC50 (CGTH-W-1): 649 nM | IC50 (KNS-81-FD): > 2 µM | IC50 (SHP77): > 2 µM | IC50 (SH-4): > 2 µM | IC50 (SW 954): > 2 µM | IC50 (KINGS-1): > 2 µM | IC50 (NCI-H226): > 2 µM | IC50 (ES1): > 2 µM

CS(=O)(=O)c1ccc(C(=O)Nc2ccc(Cl)c(-c3ccccn3)c2)c(Cl)c1 [VISMODEGIB]
IC50 (KE-37): > 10 µM | IC50 (EM-2): > 10000 nM | IC50 (NCI-H209): > 10 µM | IC50 (HEL): > 10 µM | IC50 (D-502MG): > 10 µM | IC50 (MZ7-mel): > 10 µM | IC50 (A498): > 10 µM | IC50 (HOP-62): > 10000 nM | IC50 (NEC8): > 10 µM | IC50 (GAK): > 10 µM | IC50 (HCC 2998): > 10 µM | IC50 (LS-411N): > 10 µM | IC50 (U-87 MG): > 10 µM | IC50 (ALL-PO): > 10 µM | IC50 (IST-MEL1): > 10 µM | IC50 (NB10): > 10 µM | IC50 (KMOE-2): > 10 µM | IC50 (KM-H2): > 10 µM | IC50 (RPMI-8226): > 10 µM | IC50 (GT3TKB): > 10 µM | IC50 (no-11): > 10 µM | IC50 (SW684): > 10 µM | IC50 (SK-MEL-2): > 10 µM | IC50 (PSN1): > 10 µM | IC50 (SF-268): > 10 µM | IC50 (LC-2-ad): > 10 µM | IC50 (ACN): 8.5 µM | IC50 (BB30-HNC): > 10 µM | IC50 (MPP-89): > 10 µM | IC50 (A704): > 10 µM | IC50 (EW-16): > 10 µM | IC50 (BT-474): > 10 µM | IC50 (MZ2-MEL): > 10 µM | IC50 (COLO-668): > 10 µM | IC50 (MFH-ino): > 10 µM | IC50 (ES8): > 10 µM | IC50 (TK-10): > 10 µM | IC50 (SW982): > 10 µM | IC50 (OCUB-M): > 10 µM | IC50 (CGTH-W-1): > 10000 nM | IC50 (KNS-81-FD): > 10 µM | IC50 (SHP77): > 10 µM | IC50 (SH-4): > 10 µM | IC50 (SW 954): > 10 µM | IC50 (KINGS-1): > 10 µM | IC50 (NCI-H226): > 10 µM | IC50 (ES1): > 10 µM
